Consider 14 compounds from article PMC11247487, “Discovery of Dual MER/AXL Kinase Inhibitors as Bifunctional Small Molecules for Inhibiting Tumor Growth and Enhancing Tumor Immune Microenvironment” (Journal of Medicinal Chemistry, 2024).

Each structure is given as a SMILES string.

One may read the IC50 as the point on the concentration scale where inhibition reaches its midpoint.

The test system of the assay is Ba/F3-MER cells. Put plainly: Cell viability assay (MTS). It counts as cell-based. The following applies: 72 h.
With `Cc1oc2ncnc(Oc3ccc(NC(=O)c4cccn(-c5ccc(F)cc5)c4=O)cc3)c2c1-c1cccc(N)c1` [Compound 20, N-(4-{[5-(3-Aminophenyl)-6-methylfuro[2,3-d]pyrimidin-4-yl]oxy}phenyl)-1-(4-fluorophenyl)-2-oxo-1,2-dihydropyridine-3-carboxamide], it took 211 nM to reach half-maximal inhibition (IC50).

`Nc1cccc(-c2c(-c3cn[nH]c3)oc3ncnc(Oc4ccc(NC(=O)c5cccn(-c6ccc(F)cc6)c5=O)cc4)c23)c1` [Compound 21, N-(4-{[5-(3-Aminophenyl)-6-(1H-pyrazol-4-yl)furo[2,3-d]pyrimidin-4-yl]oxy}phenyl)-1-(4-fluorophenyl)-2-oxo-1,2-dihydropyridine-3-carboxamide]: 10.6 nM corresponded to half-maximal inhibition (IC50). Compared with the last compound, the IC50 is about 20-fold lower.

Turning to `Cn1cc(-c2oc3ncnc(Oc4ccc(NC(=O)c5cccn(-c6ccc(F)cc6)c5=O)cc4)c3c2-c2ccccc2N)cn1` [Compound 36, N-(4-{[5-(2-Aminophenyl)-6-(1-methyl-1H-pyrazol-4-yl)furo[2,3-d]pyrimidin-4-yl]oxy}phenyl)-1-(4-fluorophenyl)-2-oxo-1,2-dihydropyridine-3-carboxamide], the IC50 stood at 2.1 nM.

For the compound `Nc1cccc(-c2coc3ncnc(Oc4ccc(NC(=O)c5cccn(-c6ccc(F)cc6)c5=O)cc4)c23)c1` [Compound 18, N-(4-{[5-(3-Aminophenyl)furo[2,3-d]pyrimidin-4-yl]oxy}phenyl)-1-(4-fluorophenyl)-2-oxo-1,2-dihydropyridine-3-carboxamide], it took 910 nM to reach half-maximal inhibition (IC50).

In turn, `Cc1nn(C)cc1-c1oc2ncnc(Oc3ccc(NC(=O)c4cccn(-c5ccc(F)cc5)c4=O)cc3)c2c1-c1cccc(N)c1` [Compound 23, N-(4-{[5-(3-Aminophenyl)-6-(1,3-dimethyl-1H-pyrazol-4-yl)furo[2,3-d]pyrimidin-4-yl]oxy}phenyl)-1-(4-fluorophenyl)-2-oxo-1,2-dihydropyridine-3-carboxamide] returned a concentration for half-maximal inhibition (IC50) of 5.9 nM.

In the case of `Nc1cccc(-c2c(-c3cc[nH]n3)oc3ncnc(Oc4ccc(NC(=O)c5cccn(-c6ccc(F)cc6)c5=O)cc4)c23)c1` [Compound 25, N-(4-{[5-(3-Aminophenyl)-6-(1H-pyrazol-3-yl)furo[2,3-d]pyrimidin-4-yl]oxy}phenyl)-1-(4-fluorophenyl)-2-oxo-1,2-dihydropyridine-3-carboxamide], the IC50 amounted to 77.1 nM. Compared with the last compound, the IC50 is about 13-fold higher.

For `Cn1cc(-c2oc3ncnc(Oc4ccc(NC(=O)c5cccn(-c6ccc(F)cc6)c5=O)cc4)c3c2-c2ccc(N)cc2)cn1` [Compound 37, N-(4-{[5-(4-Aminophenyl)-6-(1-methyl-1H-pyrazol-4-yl)furo[2,3-d]pyrimidin-4-yl]oxy}phenyl)-1-(4-fluorophenyl)-2-oxo-1,2-dihydropyridine-3-carboxamide], the half-inhibitory concentration (IC50) worked out at 1.2 nM. Against the preceding compound, the IC50 is about 64-fold lower.

With `Nc1cccc(-c2c(Br)oc3ncnc(Oc4ccc(NC(=O)c5cccn(-c6ccc(F)cc6)c5=O)cc4)c23)c1` [Compound 19, N-(4-{[5-(3-Aminophenyl)-6-bromofuro[2,3-d]pyrimidin-4-yl]oxy}phenyl)-1-(4-fluorophenyl)-2-oxo-1,2-dihydropyridine-3-carboxamide], 428 nM corresponded to half-maximal inhibition (IC50).

As to `Cn1cc(-c2cc3c(Oc4ccc(NC(=O)c5cccn(-c6ccc(F)cc6)c5=O)cc4)ncnc3o2)cn1` [Compound 27, 1-(4-Fluorophenyl)-N-(4-{[6-(1-methyl-1H-pyrazol-4-yl)furo[2,3-d]pyrimidin-4-yl]oxy}phenyl)-2-oxo-1,2-dihydropyridine-3-carboxamide], the concentration for half-maximal inhibition (IC50) was 172 nM.

As to `Cc1noc(C)c1-c1oc2ncnc(Oc3ccc(NC(=O)c4cccn(-c5ccc(F)cc5)c4=O)cc3)c2c1-c1cccc(N)c1` [Compound 24, N-(4-{[5-(3-Aminophenyl)-6-(3,5-dimethyl-1,2-oxazol-4-yl)furo[2,3-d]pyrimidin-4-yl]oxy}phenyl)-1-(4-fluorophenyl)-2-oxo-1,2-dihydropyridine-3-carboxamide], the concentration for half-maximal inhibition (IC50) is 1050 nM. Compared with the last compound, the IC50 is about 6.1-fold higher.

`Nc1cccc(-c2c(-c3ccsc3)oc3ncnc(Oc4ccc(NC(=O)c5cccn(-c6ccc(F)cc6)c5=O)cc4)c23)c1` [Compound 26, N-(4-{[5-(3-Aminophenyl)-6-(thiophen-3-yl)furo[2,3-d]pyrimidin-4-yl]oxy}phenyl)-1-(4-fluorophenyl)-2-oxo-1,2-dihydropyridine-3-carboxamide] came in with a half-inhibitory concentration (IC50) of 4.5 nM.

`CC(=O)Nc1ccc(-c2c(-c3cnn(C)c3)oc3ncnc(Oc4ccc(NC(=O)c5cccn(-c6ccc(F)cc6)c5=O)cc4)c23)cc1` [Compound 38, N-[4-({5-[4-(Acetylamino)phenyl]-6-(1-methyl-1H-pyrazol-4-yl)furo[2,3-d]pyrimidin-4-yl}oxy)phenyl]-1-(4-fluorophenyl)-2-oxo-1,2-dihydropyridine-3-carboxamide] had an IC50 of 0.4 nM. This IC50 lies about 11-fold lower than the previous one.

With `CN(C)c1cccc(-c2c(-c3cnn(C)c3)oc3ncnc(Oc4ccc(NC(=O)c5cccn(-c6ccc(F)cc6)c5=O)cc4)c23)c1` [Compound 30, N-[4-({5-[3-(Dimethylamino)phenyl]-6-(1-methyl-1H-pyrazol-4-yl)furo[2,3-d]pyrimidin-4-yl}oxy)phenyl]-1-(4-fluorophenyl)-2-oxo-1,2-dihydropyridine-3-carboxamide], the 50% inhibitory concentration (IC50) is 13.4 nM.

On to `CNCc1cccc(-c2c(-c3cnn(C)c3)oc3ncnc(Oc4ccc(NC(=O)c5cccn(-c6ccc(F)cc6)c5=O)cc4)c23)c1` [Compound 32, 1-(4-Fluorophenyl)-N-{4-[(5-{3-[(methylamino)methyl]phenyl}-6-(1-methyl-1H-pyrazol-4-yl)furo[2,3-d]pyrimidin-4-yl)oxy]phenyl}-2-oxo-1,2-dihydropyridine-3-carboxamide], for which the IC50 stood at 5 nM.
